# Laboratory results as given in paper doi:10.1101/2023.08.01.551199v1, “Activation of cannabinoid CB2 receptors by (−)-cannabichromene but not (+)-cannabichromene” (biorxiv, 2023).
# Assays:
# Format in all cases: cell-based
# human TRPA1 [1] = biological target: T1, human TRPA1 (Homo sapiens, UniProt O75762); experiment: fluorescent intracellular calcium assay (FLIPR Ca5), HEK293-TRPA1 cells; settings: agonist; 37 °C, pH 7.4, 0.1% DMSO, 1.25 mM probenecid
# T1 construct: tetracycline-induced expression in HEK293 FlpIn/T-REx cells
# T1 sequence (O75762 whole entry): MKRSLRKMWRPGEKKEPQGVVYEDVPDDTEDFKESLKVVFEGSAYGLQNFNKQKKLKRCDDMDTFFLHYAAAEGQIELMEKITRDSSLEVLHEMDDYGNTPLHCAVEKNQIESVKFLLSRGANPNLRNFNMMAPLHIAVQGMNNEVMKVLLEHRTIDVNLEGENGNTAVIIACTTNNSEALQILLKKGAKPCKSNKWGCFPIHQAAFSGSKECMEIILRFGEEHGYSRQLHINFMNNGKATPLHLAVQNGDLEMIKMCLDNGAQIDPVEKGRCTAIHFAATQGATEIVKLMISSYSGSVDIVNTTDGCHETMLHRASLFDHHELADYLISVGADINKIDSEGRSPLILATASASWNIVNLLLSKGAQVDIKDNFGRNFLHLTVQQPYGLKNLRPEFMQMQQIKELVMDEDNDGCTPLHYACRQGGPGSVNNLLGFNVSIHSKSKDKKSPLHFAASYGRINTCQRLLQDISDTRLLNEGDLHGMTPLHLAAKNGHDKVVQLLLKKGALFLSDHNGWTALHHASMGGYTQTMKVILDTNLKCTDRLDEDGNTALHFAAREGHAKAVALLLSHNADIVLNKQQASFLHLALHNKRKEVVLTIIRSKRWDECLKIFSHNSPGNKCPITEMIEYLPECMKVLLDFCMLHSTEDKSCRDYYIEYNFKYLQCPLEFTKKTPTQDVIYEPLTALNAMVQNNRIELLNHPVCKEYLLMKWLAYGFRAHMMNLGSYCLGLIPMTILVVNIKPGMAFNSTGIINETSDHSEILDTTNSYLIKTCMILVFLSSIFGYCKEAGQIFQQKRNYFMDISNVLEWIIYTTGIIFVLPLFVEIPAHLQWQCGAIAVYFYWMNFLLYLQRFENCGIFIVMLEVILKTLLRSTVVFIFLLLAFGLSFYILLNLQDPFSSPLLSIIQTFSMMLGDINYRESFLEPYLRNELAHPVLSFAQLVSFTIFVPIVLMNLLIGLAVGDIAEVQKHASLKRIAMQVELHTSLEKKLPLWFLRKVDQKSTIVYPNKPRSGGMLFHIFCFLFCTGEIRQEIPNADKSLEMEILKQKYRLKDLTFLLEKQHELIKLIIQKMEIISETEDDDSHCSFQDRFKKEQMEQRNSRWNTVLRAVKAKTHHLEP
# human CB2 = biological target: T2, human CB2 (Homo sapiens, UniProt P34972); experiment: fluorescent membrane potential assay (MPA Blue), AtT20-CB2 cells; settings: 37 °C, pH 7.4, 0.1% DMSO; no activation up to the highest concentration tested
# T2 construct: gene CNR2; stably expressed in AtT20 FlpIn cells
# T2 sequence (P34972 whole entry): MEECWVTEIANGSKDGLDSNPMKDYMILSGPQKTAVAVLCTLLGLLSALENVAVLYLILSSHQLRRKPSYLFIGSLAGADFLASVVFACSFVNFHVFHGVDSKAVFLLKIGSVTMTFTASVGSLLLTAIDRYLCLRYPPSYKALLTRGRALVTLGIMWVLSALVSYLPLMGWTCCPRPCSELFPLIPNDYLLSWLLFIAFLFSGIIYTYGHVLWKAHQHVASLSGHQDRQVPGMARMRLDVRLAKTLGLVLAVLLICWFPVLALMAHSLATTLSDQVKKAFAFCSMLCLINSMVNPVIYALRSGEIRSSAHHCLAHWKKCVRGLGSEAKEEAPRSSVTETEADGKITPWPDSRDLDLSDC
# human TRPA1 [2] = biological target: T1, human TRPA1; experiment: fluorescent intracellular calcium assay (FLIPR Ca5), HEK293-TRPA1 cells
# Source text: fluorescent intracellular calcium assay (FLIPR Ca5), HEK293-TRPA1 cells on human TRPA1 | In HEK293-TRPA1 cells cinnamaldehyde produced an increase in Ca5 fluorescence
SMILES,increase in fluorescence at 30 μM (human TRPA1 [1]) [%],EC50 (human CB2) [µM],EC50 (human TRPA1 [2]) [µM]
"CCCCCc1cc(O)c2c(c1)OC(C)(CCC=C(C)C)C=C2 (single isomer, unassigned; (+)) [(+)-CBC]",159 ± 27,> 30,
O=CC=Cc1ccccc1 [cinnamaldehyde],,,11
